Experimental data: US20060074018A1, “Methods of diagnosing & treating diabetes and insulin resistance” (Metabolex Inc, priority 2002, published 2006)

Columns and labels:
Type in all cases: in vivo, human
[1] = test system: CTGF expression; experiment: Real time PCR analysis of muscle samples, CTGF; conditions: mean post-Tro/mean pre-Tro
Procedure: (§1) The gene expression changes observed in the human muscle samples derived from lean and diabetic individuals or from diabetic individuals post-Troglitazone treatment, were further confirmed by the use of real-time quantitative PCR. A combination of specific PCR primers and a Taqman probe were designed to detect and quantify expression levels for each gene. Relative gene expression levels were determined in this manner in each patient and the mean expression level in either the lean or diabetic patient population was then calculated.

[2] = test system: TIEG mRNA; experiment: Gene expression profiling of muscle samples on custom Affymetrix chips, probe set mbxhummus23808; conditions: muscle of diabetics, Basal sample
Text: (§2) The molecular mechanism by which thiazolidinediones (TZDs) cause an increase in peripheral insulin sensitivity was studied. Genes in muscle or fat whose expression is altered by TZDs may lie on a pathway leading from TZD treatment to increased insulin sensitivity. Modulators of such genes can elicit the same effect as TZD treatment. Moreover, such modulators can lack some of the side effects of TZD. The majority of glucose disposal occurs in muscle. For this reason, gene expression profiling in human muscle from diabetics treated with troglitazone was used to identify genes important for TZD action and therefore treatment of diabetes and insulin resistance. […] The gene expression profile for each individual was determined by hybridization of cRNA to custom synthesized Affymetrix chips. Gene expression profile differences were calculated as follows. […] The raw data was analyzed by a statistical test to remove ‘outliers’. The mean ‘average difference score’ was then calculated from the average difference scores for all individuals in a particular treatment group. Genes were determined to be changed in condition 1 (such as basal diabetics before trogliazone (tro) treatment) versus condition 2 (such as basal diabetics after troglitazone treatment) by calculating the Students t test statistic between the two conditions and selecting those with t less than or equal to 0.05. […]

[3] = test system: connective tissue growth factor (CTGF) mRNA; experiment: Gene expression profiling of muscle samples on custom Affymetrix chips, probe set mbxhummus 24330; conditions: muscle of diabetics, Clamp sample
Text: as §2

[4] = test system: TIEG expression; experiment: Real time PCR analysis of muscle samples, TIEG; conditions: mean post-Tro/mean pre-Tro
Procedure: as §1

[5] = 3 months of Troglitazone treatment
[6] = after 3 months of Troglitazone treatment, mean average difference score

## Cc1c(C)c2c(c(C)c1O)CCC(C)(COc1ccc(CC3SC(=O)NC3=O)cc1)O2 (stereo not drawn) [Troglitazone, troglitazone]
[1]
  Expression Fold change, CTGF, Diabetics + Tro/Diabetics − Tro: 0.35
[2]; [5]
  Fold Change diabetic post-trog/diabetic pre-trog (TIEG): 0.65
[2]; [6]
  Diabetic Post-Trog Mean Expr (TIEG): 2634
[3]; [5]
  Fold Change diabetic post tro/diabetic pre tro (Connective Tissue Growth Factor): 0.07
[3]; [6]
  Diabetic Post-Trog Mean Expr (Connective Tissue Growth Factor): 29
[4]
  Expression Fold change, TIEG, Diabetics + Tro/Diabetics − Tro: 0.69
